Results published in patent publication US5523406A, “2-substituted tertiary carbinol derivatives of 1,5-iminosugars” (G. D. Searle & Co., priority 1994, dated 1996).
≈ marks a conversion by molar mass, not a printed value. Like-named read-outs stand apart in the source and are kept apart here.

Columns and labels:
HIV-1, strain HTVL-IIIB = experiment: Inhibition of HIV-1 cytopathogenic effect in Leu-3a-positive CEM cells, MTT endpoint (Method B); format: cell-based; settings: Human immunodeficiency virus 1, IIIB, CCRF-CEM, 216 h, read-out: ID50 (the source's name)
Protocol: (§1) These tests involved plating of susceptible human host cells which are syncytium-sensitive with and without virus in microculture plates, adding various concentrations of the test compound, incubating the plates for 9 days (during which time infected, non-drug treated control cells are largely or totally destroyed by the virus), and then determining the number of remaining viable cells using a colorimetric endpoint.
Various illustrative compounds synthesized above were tested for inhibition of visna virus in vitro in a plaque reduction assay (Method A) or for inhibition of HIV-1 in a test which measured reduction of cytopathogenic effect in virus-infected synctium-sensitive Leu-3a-positive CEM cells grown in tissue culture (Method B) as follows:
(§2) Tissue culture plates were incubated at 37° C. in a humidified, 5% CO2 atmosphere and observed microscopically for toxicity and/or cytopathogenic effect (CPE). At 1 hour prior to infection, each test article was prepared from the frozen stock, and a 20 μl volume of each dilution (prepared as a 10× concentration) was added to the appropriate wells of both infected and uninfected cells.
(§3) On the 9th day post-infection, the cells in each well were resuspended and a 100 μl sample of each cell suspension was removed for use in an MTT assay. A 20 μl volume of a 5 mg/ml solution of 3-(4,5-dimethylthiazol-2-yl)-2,5-diphenyltetrazolium bromide (MTT) was added to each 100 μl cell suspension, and the cells were incubated at 37° C. in 5% CO2 for 4 hours. […] A 100 μl volume of a solution of 10% sodium dodecyl sulfate in 0.01N hydrochloric acid was added to each sample, and the samples were incubated overnight. The absorbance at 590 nm was determined for each sample using a Molecular Devices Vmax microplate reader. This assay detects drug-induced suppression of viral CPE, as well as drug cytotoxicity, by measuring the generation of MTT-formazan by surviving cells.
(§4) Assays were done in 96-well tissue culture plates. CEM cells were treated with polybrene at a concentration of 2 μg/ml, and an 80 μl volume of cells (1×10^4 cells) was dispensed into each well. A 100 μl volume of each test article dilution (prepared as a 2 ×concentration) was added to 5 wells of cells, and the cells were incubated at 37° C. for 1 hour. A frozen culture of HIV-1, strain HTVL-IIIB, was diluted in culture medium to a concentration of 5×10^4 TCID50 per ml, and a 20 μl volume (containing 10^3 TCID50 of virus) was added to 3 of the wells for each test article concentration. […] A 20 μl volume of normal culture medium was added to the remaining wells to allow evaluation of cytotoxicity. Each plate contained 6 wells of untreated, uninfected, cell control samples and 6 wells of untreated, infected, virus control samples.

in vitro = format: cell-based; settings: human, cem cells
Protocol: as §1, §2, §3, §4

[1] = Table I, Anti HIV Activity, CEM cells, 9 days

SMILES | IC50 (HIV-1, strain HTVL-IIIB; Example 38, inhibition of HIV) | IC50 (HIV-1, strain HTVL-IIIB; [1]) | cytotoxicity at 216 h (in vitro) | CC50 at 216 h (in vitro)
C[C@]1(O)CN[C@@H]2CO[C@@H](c3ccccc3)O[C@H]2[C@@H]1O [XIV, 1,5-dideoxy-1,5-imino-2-C-methyl-4,6-O-(R-phenylmethylene)TD-glucitol] | 513 µg/mL (≈ 1930 µM) | – | – | –
CC1(O)CN(CCCc2ccccc2)C(CO)C(O)C1O [XVIB, 1,5-(3-phenylpropylimino)-1,5-dideoxy-2-C-methyl-D-glucitol] | – | 492 µg/mL (≈ 1670 µM) | 40% | –
CCC(CC)CN1C[C@](C)(O)[C@@H](O)[C@H](O)[C@H]1CO [XVIC, 1,5-(2-ethylbutylimino) -1,5-dideoxy-2-C-methyl-D-glucitol] | – | 6 µg/mL (≈ 23 µM) | – | 349 µg/mL (≈ 1340 µM)

More lines, main results first:

IC50 (HIV-1, strain HTVL-IIIB; Example 38, inhibition of HIV) | IC50 (HIV-1, strain HTVL-IIIB; [1]) | SMILES | cytotoxicity at 216 h (in vitro) | CC50 at 216 h (in vitro)
– | 237 µg/mL (≈ 1020 µM) | CCCCN1C[C@](C)(O)[C@@H](O)[C@H](O)[C@H]1CO [XVIA, 1,5-Butylimino-1,5-dideoxy-2-C-methyl-D-glucitol] | 20% | –
– | 34 µg/mL (≈ 155 µM) | CCCCN1C[C@H](O)[C@@H](O)[C@H](O)[C@H]1CO [n-Bu, N-butyl DNJ, reference compound] | – | > 500 µg/mL
